Data from the NIST ThermoML archive (doi:10.1016/j.jct.2013.10.023).
± gives the expanded uncertainty stated by the source.

Tests used:
[1] = 101 kPa, Liquid; for viscosity: Capillary tube (Ostwald / Ubbelohde) method; for mass density: Vibrating tube method
[2] = xn = mol fraction of the nth substance listed; conditions: 101 kPa, Liquid, x2 = 0; for viscosity: Capillary tube (Ostwald / Ubbelohde) method; for mass density: Vibrating tube method

CC(=O)[O-].CCn1cc[n+](C)c1 [1-ethyl-3-methylimidazolium acetate]
[1]
Conditions | mass density [kg/m3] | viscosity [mPa·s]
298.15 K | 1099.04 ± 10 | 138.4 ± 3.6
308.15 K | 1092.95 ± 10 | 76.1 ± 1.6
318.15 K | 1086.88 ± 10 | 45.9 ± 0.96
328.15 K | 1080.86 ± 10 | 30.1 ± 0.63
338.15 K | 1074.86 ± 10 | 20.8 ± 0.44
348.15 K | 1071.37 ± 10 | 14.28 ± 0.3
358.15 K | 1063.03 ± 10 | 11.53 ± 0.24

CCOS(=O)(=O)[O-].CCn1cc[n+](C)c1 [1-ethyl-3-methylimidazolium ethyl sulfate] + CC(=O)[O-].CCn1cc[n+](C)c1
[2]
Conditions | mass density [kg/m3] | viscosity [mPa·s]
298.15 K | 1238.68 ± 10 | 96.62 ± 2.2
308.15 K | 1231.92 ± 10 | 60.41 ± 1.3
318.15 K | 1225.2 ± 10 | 39.95 ± 0.84
328.15 K | 1218.51 ± 10 | 28.91 ± 0.61
338.15 K | 1211.88 ± 10 | 20.63 ± 0.43
348.15 K | 1208.19 ± 10 | 15.66 ± 0.33
358.15 K | 1198.75 ± 10 | 12.23 ± 0.26

CCOS(=O)(=O)[O-].CCn1cc[n+](C)c1 [1-ethyl-3-methylimidazolium ethyl sulfate]
[1]
Conditions | mass density [kg/m3] | viscosity [mPa·s]
298.15 K | 1238.68 ± 10 | 96.62 ± 2.2
308.15 K | 1231.92 ± 10 | 60.41 ± 1.3
318.15 K | 1225.2 ± 10 | 39.95 ± 0.84
328.15 K | 1218.51 ± 10 | 28.91 ± 0.61
338.15 K | 1211.88 ± 10 | 20.63 ± 0.43
348.15 K | 1208.19 ± 10 | 15.66 ± 0.33
358.15 K | 1198.75 ± 10 | 12.23 ± 0.26
